From patent US20230085307A1, “PYRIDAZINONE COMPOUND AND HERBICIDE” (NISSAN CHEMICAL CORPORATION, priority 2019, published 2023)

Assays:
late watergrass = test: Test Example 1: herbicidal activity, application before weed generation under submerged conditions (Table 16, symbol A); type: in vivo, late watergrass (Echinochloa oryzicola)
Procedure, shortened: (§1)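 Emulsion formulation, water-diluted to set dose, was put onto the flooded surface (4 cm depth, alluvial soil) the same day weeds were sown and 2.5-leaf rice transplanted. After 3 weeks at 25-30 °C under glass, each species was rated 0 (≤5% kill) to 5 (≥90% kill).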

Japanese bulrush = test: Test Example 1: herbicidal activity, application before weed generation under submerged conditions (Table 16, symbol B); type: in vivo, Japanese bulrush (Schoenoplectus juncoides)
Procedure, shortened: as §1

oval-leafed pondweed = test: Test Example 1: herbicidal activity, application before weed generation under submerged conditions (Table 16, symbol C); type: in vivo, oval-leafed pondweed (Monochoria vaginalis)
Procedure, shortened: as §1

barnyard grass [1] = test: Test Example 3: herbicidal effect by foliage application, Wagner pot (Table 18, symbol H); type: in vivo, barnyard grass (Echinochloa crus-galli)
Procedure, shortened: (§2)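 Plants were sown in alluvial soil held under 0.1–0.5 cm standing water and grown 14 days in a greenhouse at 25–30 °C. An emulsifiable formulation, water-diluted to the set dose, was then sprayed onto the foliage, and effects were scored three weeks later using previously defined criteria.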

Chinese sprangletop = test: Test Example 3: herbicidal effect by foliage application, Wagner pot (Table 18, symbol D); type: in vivo, chinese sprangletop (Leptochloa chinensis)
Procedure, shortened: as §2

rice flat sedge = test: Test Example 3: herbicidal effect by foliage application, Wagner pot (Table 18, symbol E); type: in vivo, rice flat sedge (Cyperus iria)
Procedure, shortened: as §2

southern crabgrass [2] = test: Test Example 4: herbicidal effect by soil treatment (Table 19, symbol F); type: in vivo, southern crabgrass (Digitaria ciliaris); settings: amount of applied herbicide 320 g/ha
Procedure, shortened: (§3)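 In this soil treatment, the formulated compound reached the seeds only through the soil: seeds were buried about 1.5 cm deep in sterilized diluvial soil, then the diluted emulsion was sprayed over the surface. After three weeks at 25° C. to 30° C. in a greenhouse, effects were graded on criteria from an earlier test.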

green foxtail [3] = test: Test Example 4: herbicidal effect by soil treatment (Table 19, symbol G); type: in vivo, green foxtail (Setaria viridis); settings: amount of applied herbicide 320 g/ha
Procedure, shortened: as §3

barnyard grass [4] = test: Test Example 4: herbicidal effect by soil treatment (Table 19, symbol H); type: in vivo, barnyard grass (Echinochloa crus-galli); settings: amount of applied herbicide 320 g/ha
Procedure, shortened: as §3

wild oat [5] = test: Test Example 4: herbicidal effect by soil treatment (Table 19, symbol I); type: in vivo, wild oat (Avena fatua); settings: amount of applied herbicide 320 g/ha
Procedure, shortened: as §3

Italian ryegrass [6] = test: Test Example 4: herbicidal effect by soil treatment (Table 19, symbol K); type: in vivo, Italian ryegrass (Lolium multiflorum); settings: amount of applied herbicide 320 g/ha
Procedure, shortened: as §3

windgrass [7] = test: Test Example 4: herbicidal effect by soil treatment (Table 19, symbol L); type: in vivo, windgrass (Apera spica-venti); settings: amount of applied herbicide 320 g/ha
Procedure, shortened: as §3

velvetleaf [8] = test: Test Example 4: herbicidal effect by soil treatment (Table 19, symbol M); type: in vivo, velvetleaf (Abutilon theophrasti); settings: amount of applied herbicide 320 g/ha
Procedure, shortened: as §3

redroot pigweed [9] = test: Test Example 4: herbicidal effect by soil treatment (Table 19, symbol N); type: in vivo, redroot pigweed (Amaranthus retroflexus); settings: amount of applied herbicide 320 g/ha
Procedure, shortened: as §3

lambsquarters [10] = test: Test Example 4: herbicidal effect by soil treatment (Table 19, symbol O); type: in vivo, lambsquarters (Chenopodium album); settings: amount of applied herbicide 320 g/ha
Procedure, shortened: as §3

false cleavers = test: Test Example 4: herbicidal effect by soil treatment (Table 19, symbol Q); type: in vivo, false cleavers (Galium spurium); settings: amount of applied herbicide 320 g/ha
Procedure, shortened: as §3

persian speedwell [11] = test: Test Example 4: herbicidal effect by soil treatment (Table 19, symbol R); type: in vivo, Persian speedwell (Veronica persica); settings: amount of applied herbicide 320 g/ha
Procedure, shortened: as §3

southern crabgrass [12] = test: Test Example 5: herbicidal effect by foliage application, plastic box (Table 20, symbol F); type: in vivo, southern crabgrass (Digitaria ciliaris); settings: evaluated three weeks after application
Procedure, shortened: (§4)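 Plants were sown into sterilized diluvial soil under about 1.5 cm cover and kept in a greenhouse at 25° C. to 30° C. Fourteen days on, foliage received an even spray of the diluted emulsion. Herbicidal or crop effect was judged three weeks afterwards.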

green foxtail [13] = test: Test Example 5: herbicidal effect by foliage application, plastic box (Table 20, symbol G); type: in vivo, green foxtail (Setaria viridis); settings: evaluated three weeks after application
Procedure, shortened: as §4

barnyard grass [14] = test: Test Example 5: herbicidal effect by foliage application, plastic box (Table 20, symbol H); type: in vivo, barnyard grass (Echinochloa crus-galli); settings: evaluated three weeks after application
Procedure, shortened: as §4

wild oat [15] = test: Test Example 5: herbicidal effect by foliage application, plastic box (Table 20, symbol I); type: in vivo, wild oat (Avena fatua); settings: evaluated three weeks after application
Procedure, shortened: as §4

blackgrass [16] = test: Test Example 5: herbicidal effect by foliage application, plastic box (Table 20, symbol J); type: in vivo, blackgrass (Alopecurus myosuroides); settings: evaluated three weeks after application
Procedure, shortened: as §4

Italian ryegrass [17] = test: Test Example 5: herbicidal effect by foliage application, plastic box (Table 20, symbol K); type: in vivo, Italian ryegrass (Lolium multiflorum); settings: evaluated three weeks after application
Procedure, shortened: as §4

windgrass [18] = test: Test Example 5: herbicidal effect by foliage application, plastic box (Table 20, symbol L); type: in vivo, windgrass (Apera spica-venti); settings: evaluated three weeks after application
Procedure, shortened: as §4

velvetleaf [19] = test: Test Example 5: herbicidal effect by foliage application, plastic box (Table 20, symbol M); type: in vivo, velvetleaf (Abutilon theophrasti); settings: evaluated three weeks after application
Procedure, shortened: as §4

redroot pigweed [20] = test: Test Example 5: herbicidal effect by foliage application, plastic box (Table 20, symbol N); type: in vivo, redroot pigweed (Amaranthus retroflexus); settings: evaluated three weeks after application
Procedure, shortened: as §4

lambsquarters [21] = test: Test Example 5: herbicidal effect by foliage application, plastic box (Table 20, symbol O); type: in vivo, lambsquarters (Chenopodium album); settings: evaluated three weeks after application
Procedure, shortened: as §4

chickweed [22] = test: Test Example 5: herbicidal effect by foliage application, plastic box (Table 20, symbol P); type: in vivo, common chickweed (Stellaria media); settings: evaluated three weeks after application
Procedure, shortened: as §4

persian speedwell [23] = test: Test Example 5: herbicidal effect by foliage application, plastic box (Table 20, symbol R); type: in vivo, Persian speedwell (Veronica persica); settings: evaluated three weeks after application
Procedure, shortened: as §4

blackgrass [24] = test: Test Example 4: herbicidal effect by soil treatment (Table 19, symbol J); type: in vivo, blackgrass (Alopecurus myosuroides); settings: amount of applied herbicide 320 g/ha
Procedure, shortened: as §3

chickweed [25] = test: Test Example 4: herbicidal effect by soil treatment (Table 19, symbol P); type: in vivo, common chickweed (Stellaria media); settings: amount of applied herbicide 320 g/ha
Procedure, shortened: as §3

[26] = amount of applied herbicide 320 g/ha
[27] = foliage application, AAH 320 g/ha
[28] = amount of applied herbicide 320 g/ha, foliage application after 14-day growth

Cc1nn(C)c(=O)c(-c2c(-c3ccc(SCC(F)F)cc3)sc3ccc(F)cc23)c1O [2-260]
Herbicidal effect on A: late watergrass (grade 0-5) (late watergrass; 320 g/ha applied herbicide): 3 (Herbicidal rate of 40% or more and less than 70%) | Herbicidal effect on B: Japanese bulrush (grade 0-5) (Japanese bulrush; 320 g/ha applied herbicide): 0 (Herbicidal rate of 5% or less (almost no effect)) | Herbicidal effect on C: oval-leafed pondweed (grade 0-5) (oval-leafed pondweed; 320 g/ha applied herbicide): 0 (Herbicidal rate of 5% or less (almost no effect)) | herbicidal effect on H: barnyard grass (barnyard grass [1]; [26]): 5 (Herbicidal rate of 90% or more (almost completely withered)) | herbicidal effect on D: Chinese sprangletop (Chinese sprangletop; [26]): 3 (Herbicidal rate of 40% or more and less than 70%) | herbicidal effect on E: rice flat sedge (rice flat sedge; [26]): 3 (Herbicidal rate of 40% or more and less than 70%) | herbicidal effect on F: southern crabgrass (southern crabgrass [2]): 4 (Herbicidal rate of 70% or more and less than 90%) | herbicidal effect on G: green foxtail (green foxtail [3]): 5 (Herbicidal rate of 90% or more (almost completely withered)) | herbicidal effect on H: barnyard grass (barnyard grass [4]): 3 (Herbicidal rate of 40% or more and less than 70%) | herbicidal effect on I: wild oat (wild oat [5]): 0 (Herbicidal rate of 5% or less (almost no effect)) | herbicidal effect on K: Italian ryegrass (Italian ryegrass [6]): 0 (Herbicidal rate of 5% or less (almost no effect)) | herbicidal effect on L: windgrass (windgrass [7]): 0 (Herbicidal rate of 5% or less (almost no effect)) | herbicidal effect on M: velvetleaf (velvetleaf [8]): 3 (Herbicidal rate of 40% or more and less than 70%) | herbicidal effect on N: redroot pigweed (redroot pigweed [9]): 5 (Herbicidal rate of 90% or more (almost completely withered)) | herbicidal effect on O: lambsquarters (lambsquarters [10]): 5 (Herbicidal rate of 90% or more (almost completely withered)) | herbicidal effect on Q: false cleavers (false cleavers): 0 (Herbicidal rate of 5% or less (almost no effect)) | herbicidal effect on R: persian speedwell (persian speedwell [11]): 3 (Herbicidal rate of 40% or more and less than 70%) | F: southern crabgrass, herbicidal effect (criteria 0-5) (southern crabgrass [12]; [27]): 5 (Herbicidal rate of 90% or more (almost completely withered)) | G: green foxtail, herbicidal effect (criteria 0-5) (green foxtail [13]; [27]): 5 (Herbicidal rate of 90% or more (almost completely withered)) | H: barnyard grass, herbicidal effect (criteria 0-5) (barnyard grass [14]; [27]): 5 (Herbicidal rate of 90% or more (almost completely withered)) | I: wild oat, herbicidal effect (criteria 0-5) (wild oat [15]; [27]): 5 (Herbicidal rate of 90% or more (almost completely withered)) | J: blackgrass, herbicidal effect (criteria 0-5) (blackgrass [16]; [27]): 4 (Herbicidal rate of 70% or more and less than 90%) | K: Italian ryegrass, herbicidal effect (criteria 0-5) (Italian ryegrass [17]; [27]): 5 (Herbicidal rate of 90% or more (almost completely withered)) | L: windgrass, herbicidal effect (criteria 0-5) (windgrass [18]; [27]): 5 (Herbicidal rate of 90% or more (almost completely withered)) | M: velvetleaf, herbicidal effect (criteria 0-5) (velvetleaf [19]; [27]): 4 (Herbicidal rate of 70% or more and less than 90%) | N: redroot pigweed, herbicidal effect (criteria 0-5) (redroot pigweed [20]; [27]): 5 (Herbicidal rate of 90% or more (almost completely withered)) | O: lambsquarters, herbicidal effect (criteria 0-5) (lambsquarters [21]; [27]): 5 (Herbicidal rate of 90% or more (almost completely withered)) | P: chickweed, herbicidal effect (criteria 0-5) (chickweed [22]; [27]): 5 (Herbicidal rate of 90% or more (almost completely withered)) | R: persian speedwell, herbicidal effect (criteria 0-5) (persian speedwell [23]; [27]): 5 (Herbicidal rate of 90% or more (almost completely withered))

CCCC(=O)Oc1c(C)nn(C)c(=O)c1-c1c(-c2ccc(F)cc2OCC)sc2cc(F)c(F)cc12 [5-032]
Herbicidal effect, A: late watergrass (late watergrass; [26]): 4 (Herbicidal rate of 70% or more and less than 90%) | Herbicidal effect, B: Japanese bulrush (Japanese bulrush; [26]): 1 (Herbicidal rate of 5% or more and less than 20%) | Herbicidal effect, C: oval-leafed pondweed (oval-leafed pondweed; [26]): 0 (Herbicidal rate of 5% or less (almost no effect)) | herbicidal effect on barnyard grass (H) (barnyard grass [1]; 320 g/ha): 4 (Herbicidal rate of 70% or more and less than 90%) | herbicidal effect on Chinese sprangletop (D) (Chinese sprangletop; 320 g/ha): 3 (Herbicidal rate of 40% or more and less than 70%) | herbicidal effect on rice flat sedge (E) (rice flat sedge; 320 g/ha): 0 (Herbicidal rate of 5% or less (almost no effect)) | F: southern crabgrass, herbicidal effect grade (southern crabgrass [2]): 0 (Herbicidal rate of 5% or less (almost no effect)) | G: green foxtail, herbicidal effect grade (green foxtail [3]): 3 (Herbicidal rate of 40% or more and less than 70%) | H: barnyard grass, herbicidal effect grade (barnyard grass [4]): 0 (Herbicidal rate of 5% or less (almost no effect)) | I: wild oat, herbicidal effect grade (wild oat [5]): 0 (Herbicidal rate of 5% or less (almost no effect)) | J: blackgrass, herbicidal effect grade (blackgrass [24]): 3 (Herbicidal rate of 40% or more and less than 70%) | K: Italian ryegrass, herbicidal effect grade (Italian ryegrass [6]): 0 (Herbicidal rate of 5% or less (almost no effect)) | L: windgrass, herbicidal effect grade (windgrass [7]): 5 (Herbicidal rate of 90% or more (almost completely withered)) | M: velvetleaf, herbicidal effect grade (velvetleaf [8]): 1 (Herbicidal rate of 5% or more and less than 20%) | N: redroot pigweed, herbicidal effect grade (redroot pigweed [9]): 4 (Herbicidal rate of 70% or more and less than 90%) | O: lambsquarters, herbicidal effect grade (lambsquarters [10]): 4 (Herbicidal rate of 70% or more and less than 90%) | P: chickweed, herbicidal effect grade (chickweed [25]): 0 (Herbicidal rate of 5% or less (almost no effect)) | Q: false cleavers, herbicidal effect grade (false cleavers): 0 (Herbicidal rate of 5% or less (almost no effect)) | Herbicidal effect by foliage application, F: southern crabgrass (southern crabgrass [12]; [28]): 0 (Herbicidal rate of 5% or less (almost no effect)) | Herbicidal effect by foliage application, G: green foxtail (green foxtail [13]; [28]): 2 (Herbicidal rate of 20% or more and less than 40%) | Herbicidal effect by foliage application, H: barnyard grass (barnyard grass [14]; [28]): 4 (Herbicidal rate of 70% or more and less than 90%) | Herbicidal effect by foliage application, I: wild oat (wild oat [15]; [28]): 0 (Herbicidal rate of 5% or less (almost no effect)) | Herbicidal effect by foliage application, J: blackgrass (blackgrass [16]; [28]): 3 (Herbicidal rate of 40% or more and less than 70%) | Herbicidal effect by foliage application, K: Italian ryegrass (Italian ryegrass [17]; [28]): 0 (Herbicidal rate of 5% or less (almost no effect)) | Herbicidal effect by foliage application, L: windgrass (windgrass [18]; [28]): 4 (Herbicidal rate of 70% or more and less than 90%) | Herbicidal effect by foliage application, M: velvetleaf (velvetleaf [19]; [28]): 4 (Herbicidal rate of 70% or more and less than 90%) | Herbicidal effect by foliage application, N: redroot pigweed (redroot pigweed [20]; [28]): 3 (Herbicidal rate of 40% or more and less than 70%) | Herbicidal effect by foliage application, O: lambsquarters (lambsquarters [21]; [28]): 3 (Herbicidal rate of 40% or more and less than 70%) | Herbicidal effect by foliage application, P: chickweed (chickweed [22]; [28]): 5 (Herbicidal rate of 90% or more (almost completely withered)) | Herbicidal effect by foliage application, R: persian speedwell (persian speedwell [23]; [28]): 3 (Herbicidal rate of 40% or more and less than 70%)
